According to US20170253607A1, “LONG-ACTING HIV PROTEASE INHIBITOR” (Shionogi & Co., Ltd., priority 2014, published 2017):

molecular target: HIV-1 PR (Human immunodeficiency virus type 1 group M subtype B, UniProt P04585); test: HIV-protease inhibitory activity assay (FRET peptide substrate); format: biochemical; conditions: Test Example 1
Method in brief: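 Compounds were preincubated with HIV-1 PR (0.83 ng) at room temperature in pH 4.8 NaAc buffer (0.5 M NaCl, EDTA, DTT, Tween 20), then HiLyte Fluor 488/QXL 520 FRET peptide (2 μmol/L final) was added for 60 min. Fluorescence was read at 485/535 nm, and IC50 was fitted by four-parameter logistic regression.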

Row | Structure (SMILES) | IC50
1 | COc1ccc(S(=O)(=O)N(CC(C)C)CC(O)C(Cc2ccc(N(Cc3ccccc3-c3sc4c(c3C(=O)O)CC(C)(C)CC4)C(C)=O)cc2)NC(=O)OC2COC3(C)OCCC23)cc1 (stereo not drawn) [Compound I-339] | 1.83 nM
2 | COc1ccc(S(=O)(=O)N(CC(C)C)CC(O)C(Cc2ccc(NCC3(c4ccc(-c5sc6c(c5C(=O)O)CC(C)(C)CC6)cc4)CCCC3)cc2)NC(=O)OC2COC3(C)OCCC23)cc1 (stereo not drawn) [Compound I-340] | 5.6 nM
3 | COc1ccc(S(=O)(=O)N(CC(C)C)CC(O)C(Cc2ccc(CN(C)C3CCCCC3c3sc4c(c3C(=O)O)CC(C)(C)CC4)cc2)NC(=O)OC2COC3(C)OCCC23)cc1 (stereo not drawn) [Compound I-341] | 1.89 nM
4 | COc1ccc(S(=O)(=O)N(CC(C)C)CC(O)C(Cc2ccc(CN(C)C3CCCCC3c3sc4c(c3C(=O)O)CC(C)(C)CC4)cc2)NC(=O)OC2COC3(C)OCCC23)cc1 (stereo not drawn) [Compound I-342] | 2.06 nM
5 | COc1ccc(S(=O)(=O)N(CC(C)C)CC(O)C(Cc2ccc(OCc3ccccc3-c3c(OCc4ccccc4)noc3C(=O)O)cc2)NC(=O)OC2COC3(C)OCCC23)cc1 (stereo not drawn) [Compound I-344] | 2.83 nM
6 | COc1ccc(S(=O)(=O)N(CC(C)C)CC(O)C(Cc2ccc(CN(C)C3CCCCC3c3sc4c(c3C(=O)O)CC(C)(C)CC4)cc2)NC(=O)OC2COC3(C)OCCC23)cc1 (stereo not drawn) [Compound I-345] | 1.82 nM
7 | COc1ccc(S(=O)(=O)N(CC(C)C)CC(O)C(Cc2ccc(N3CCC(Oc4ccc(-c5sc6c(c5C(=O)O)CC(C)(C)CC6)cc4)C3)cc2)NC(=O)OC2COC3(C)OCCC23)cc1 (stereo not drawn) [Compound I-350] | 5.32 nM
8 | COc1ccc(S(=O)(=O)N(CC(C)C)CC(O)C(Cc2ccc(OC3CCN(c4ncccc4-c4sc5c(c4C(=O)O)CC(C)(C)CC5)C3)cc2)NC(=O)OC2COC3(C)OCCC23)cc1 (stereo not drawn) [Compound I-355] | 2.35 nM
9 | COc1ccc(S(=O)(=O)N(CC(C)C)CC(O)C(Cc2ccc(NCc3ccc(-c4c(C(=O)O)sc5c4CC(C)(C)CC5)cc3)cc2)NC(=O)OC2COC3(C)OCCC23)cc1 (stereo not drawn) [Compound I-356] | 3.3 nM
10 | COc1ccc(S(=O)(=O)N(CC(C)C)CC(O)C(Cc2ccc(N(C)CC3CCCCC3c3sc4c(c3C(=O)O)CC(C)(C)CC4)cc2)NC(=O)OC2COC3(C)OCCC23)cc1 (stereo not drawn) [Compound I-358] | 3.89 nM
11 | COc1ccc(S(=O)(=O)N(CC(C)C)CC(O)C(Cc2ccc(N(C)CC3CCCCC3c3sc4c(c3C(=O)O)CC(C)(C)CC4)cc2)NC(=O)OC2COC3(C)OCCC23)cc1 (stereo not drawn) [Compound I-359] | 3.77 nM
12 | COc1ccc(S(=O)(=O)N(CC(C)C)CC(O)C(Cc2ccc(OC3CN(c4cccc(-c5sc6c(c5C(=O)O)CC(C)(C)CC6)c4)C3)cc2)NC(=O)OC2COC3(C)OCCC23)cc1 (stereo not drawn) [Compound I-360] | 4.54 nM
13 | COc1ccc(S(=O)(=O)N(CC(C)C)CC(O)C(Cc2ccc(OC3CN(c4ccc(-c5sc6c(c5C(=O)O)CC(C)(C)CC6)cc4)C3)cc2)NC(=O)OC2COC3(C)OCCC23)cc1 (stereo not drawn) [Compound I-361] | 6.22 nM
14 | COc1ccc(S(=O)(=O)N(CC(C)C)CC(O)C(Cc2ccc(OC3CC(N(C)c4ccccc4-c4sc5c(c4C(=O)O)CC(C)(C)CC5)C3)cc2)NC(=O)OC2COC3(C)OCCC23)cc1 (stereo not drawn) [Compound I-364] | 5.39 nM
15 | COc1ccc(S(=O)(=O)N(CC2CCCC2)CC(O)C(Cc2ccc(OCCn3nc4c(c3C(=O)O)CC(C)(C)CC4)cc2)NC(=O)OC2COC3(C)OCCC23)cc1 (stereo not drawn) [Compound I-366] | 2.72 nM
16 | COc1ccc(S(=O)(=O)N(CC(C)C)CC(O)C(Cc2ccc(NCc3ccccc3-c3sc4c(c3C(=O)O)C(=O)CCC4)cc2)NC(=O)OC2COC3(C)OCCC23)cc1 (stereo not drawn) [Compound I-367] | 2.61 nM
17 | COc1ccc(S(=O)(=O)N(CC(C)C)CC(O)C(Cc2ccc(NCc3ccccc3-c3nc4n(c3C(=O)O)CCCC4)cc2)NC(=O)OC2COC3(C)OCCC23)cc1 (stereo not drawn) [Compound I-368] | 2.11 nM
18 | COc1ccc(S(=O)(=O)N(CC(C)C)CC(O)C(Cc2ccc(NCC3(c4ccc(-c5sc6c(c5C(=O)O)CC(C)(C)CC6)cc4)CCCCC3)cc2)NC(=O)OC2COC3(C)OCCC23)cc1 (stereo not drawn) [Compound I-369] | 15.8 nM
19 | COc1ccc(S(=O)(=O)N(CC(C)C)CC(O)C(Cc2ccc(N3CC(Oc4ccc(-c5sc6c(c5C(=O)O)CC(C)(C)CC6)cc4)C3)cc2)NC(=O)OC2COC3(C)OCCC23)cc1 (stereo not drawn) [Compound I-370] | 5.02 nM
20 | COc1ccc(S(=O)(=O)N(CC(C)C)CC(O)C(Cc2ccc(N(C)CC3CCCCC3c3sc4c(c3C(=O)O)CC(C)(C)CC4)cc2)NC(=O)OC2COC3(C)OCCC23)cc1 (stereo not drawn) [Compound I-375] | 3.87 nM
21 | CCN(C(=O)Nc1ccccc1-c1sc2c(c1C(=O)O)CC(C)(C)CC2)c1ccc(CC(NC(=O)OC2COC3(C)OCCC23)C(O)CN(CC(C)C)S(=O)(=O)c2ccc(OC)cc2)cc1 (stereo not drawn) [Compound I-377] | 5.4 nM
22 | COc1ccc(S(=O)(=O)N(CC(C)C)CC(O)C(Cc2ccc(NCC3=C(c4sc5c(c4C(=O)O)CC(C)(C)CC5)CCC3)cc2)NC(=O)OC2COC3(C)OCCC23)cc1 (stereo not drawn) [Compound I-381] | 4.69 nM
23 | COc1ccc(S(=O)(=O)N(CC(C)C)CC(O)C(Cc2ccc(OC3CC(N(C)c4ccccc4-c4sc5c(c4C(=O)O)CC(C)(C)CC5)C3)cc2)NC(=O)OC2COC3(C)OCCC23)cc1 (stereo not drawn) [Compound I-382] | 7.26 nM

Row | Structure (SMILES) | IC50
24 | COc1ccc(S(=O)(=O)N(CC(C)C)CC(O)C(Cc2ccc(NC(C)c3ccccc3-c3sc4c(c3C(=O)O)CC(C)(C)CC4)cc2)NC(=O)OC2COC3(C)OCCC23)cc1 (stereo not drawn) [Compound I-383] | 6.47 nM
25 | COc1ccc(S(=O)(=O)N(CC(C)C)CC(O)C(Cc2ccc(OCC3=C(c4sc5c(c4C(=O)O)CC(C)(C)CC5)COC3)cc2)NC(=O)OC2COC3(C)OCCC23)cc1 (stereo not drawn) [Compound I-385] | 1.25 nM
26 | COc1ccc(S(=O)(=O)N(CC(C)C)CC(O)C(Cc2ccc(CN3CCc4c(cccc4-c4sc5c(c4C(=O)O)CC(C)(C)CC5)C3)cc2)NC(=O)OC2COC3(C)OCCC23)cc1 (stereo not drawn) [Compound I-388] | 1.53 nM
27 | COc1ccc(S(=O)(=O)N(CC(C)C)CC(O)C(Cc2ccc(N3CCN(c4ccccc4-c4sc5c(c4C(=O)O)CC(C)(C)CC5)C3=O)cc2)NC(=O)OC2COC3(C)OCCC23)cc1 (stereo not drawn) [Compound I-390] | 1.84 nM
28 | COc1ccc(S(=O)(=O)N(CC(C)C)CC(O)C(Cc2ccc(NCc3ccccc3-c3ccc4c(c3C(=O)O)CC(C)(C)CC4)cc2)NC(=O)OC2COC3(C)OCCC23)cc1 (stereo not drawn) [Compound I-392] | 2.4 nM
29 | COc1ccc(S(=O)(=O)N(CC(C)C)CC(O)C(Cc2ccc(NCC3(c4cccc(-c5sc6c(c5C(=O)O)CC(C)(C)CC6)c4)CCCC3)cc2)NC(=O)OC2COC3(C)OCCC23)cc1 (stereo not drawn) [Compound I-393] | 14.5 nM
30 | COc1ccc(S(=O)(=O)N(CC(C)C)CC(O)C(Cc2ccc(OCC3COCC3c3sc4c(c3C(=O)O)CC(C)(C)CC4)cc2)NC(=O)OC2COC3(C)OCCC23)cc1 (stereo not drawn) [Compound I-394] | 1.64 nM
31 | COc1ccc(S(=O)(=O)N(CC(C)C)CC(O)C(Cc2ccc(OCC3COCC3c3sc4c(c3C(=O)O)CC(C)(C)CC4)cc2)NC(=O)OC2COC3(C)OCCC23)cc1 (stereo not drawn) [Compound I-395] | 1.86 nM
32 | COc1ccc(S(=O)(=O)N(CC(C)C)CC(O)C(Cc2ccc(NCc3ccccc3C(=O)Nc3sc4c(c3C(=O)O)CC(C)(C)CC4)cc2)NC(=O)OC2COC3(C)OCCC23)cc1 (stereo not drawn) [Compound I-397] | 2.64 nM
33 | COc1ccc(S(=O)(=O)N(CC(C)C)CC(O)C(Cc2ccc(N(C)CC3COCCC3c3sc4c(c3C(=O)O)CC(C)(C)CC4)cc2)NC(=O)OC2COC3(C)OCCC23)cc1 (stereo not drawn) [Compound I-400] | 1.69 nM
34 | COc1ccc(S(=O)(=O)N(CC(C)C)CC(O)C(Cc2ccc(N(C)CC3COCCC3c3sc4c(c3C(=O)O)CC(C)(C)CC4)cc2)NC(=O)OC2COC3(C)OCCC23)cc1 (stereo not drawn) [Compound I-401] | 1.77 nM
35 | COc1ccc(S(=O)(=O)N(CC(C)C)CC(O)C(Cc2ccc(NCC3=C(c4sc5c(c4C(=O)O)CC(C)(C)CC5)CN(C(=O)O)C3)cc2)NC(=O)OC2COC3(C)OCCC23)cc1 (stereo not drawn) [Compound I-402] | 1.89 nM
36 | COc1ccc(S(=O)(=O)N(CC(C)C)CC(O)C(Cc2ccc(NCC3=C(c4sc5c(c4C(=O)O)CC(C)(C)CC5)CCN(C)C3)cc2)NC(=O)OC2COC3(C)OCCC23)cc1 (stereo not drawn) [Compound I-403] | 2.3 nM
37 | COc1ccc(S(=O)(=O)N(CC(C)C)CC(O)C(Cc2ccc(N(C)C3Cc4cccc(-c5sc6c(c5C(=O)O)CC(C)(C)CC6)c4C3)cc2)NC(=O)OC2COC3(C)OCCC23)cc1 (stereo not drawn) [Compound I-404] | 1.88 nM
38 | COC(=O)c1ccc(CNc2ccc(CC(NC(=O)OC3COC4(C)OCCC34)C(O)CN(CC(C)C)S(=O)(=O)c3ccc(OC)cc3)cc2)c(-c2sc3c(c2C(=O)O)CC(C)(C)CC3)c1 (stereo not drawn) [Compound I-408] | 1.8 nM
39 | COc1ccc(S(=O)(=O)N(CC(C)C)CC(O)C(Cc2ccc(NCc3ccccc3-c3c(C(=O)O)c4ccccc4n3C)cc2)NC(=O)OC2COC3(C)OCCC23)cc1 (stereo not drawn) [Compound I-411] | 1.3 nM
40 | COc1ccc(S(=O)(=O)N(CC(C)C)CC(O)C(Cc2ccc(N(C)Cc3ccccc3-c3c(C(=O)O)c4ccccc4n3C)cc2)NC(=O)OC2COC3(C)OCCC23)cc1 (stereo not drawn) [Compound I-412] | 1.51 nM
41 | COc1ccc(S(=O)(=O)N(CC(C)C)CC(O)C(Cc2ccc(NCc3ccc(C(=O)O)cc3-c3sc4c(c3C(=O)O)CC(C)(C)CC4)cc2)NC(=O)OC2COC3(C)OCCC23)cc1 (stereo not drawn) [Compound I-413] | 1.84 nM
42 | CNC(=O)c1ccc(CNc2ccc(CC(NC(=O)OC3COC4(C)OCCC34)C(O)CN(CC(C)C)S(=O)(=O)c3ccc(OC)cc3)cc2)c(-c2sc3c(c2C(=O)O)CC(C)(C)CC3)c1 (stereo not drawn) [Compound I-416] | 1.63 nM
43 | COc1ccc(S(=O)(=O)N(CC(C)C)CC(O)C(Cc2ccc(NCc3ccc(C(=O)N(C)C)cc3-c3sc4c(c3C(=O)O)CC(C)(C)CC4)cc2)NC(=O)OC2COC3(C)OCCC23)cc1 (stereo not drawn) [Compound I-417] | 1.64 nM
44 | COc1ccc(S(=O)(=O)N(CC(C)C)CC(O)C(Cc2ccc(N(Cc3ccco3)Cc3ccccc3-c3sc4c(c3C(=O)O)CC(C)(C)CC4)cc2)NC(=O)OC2COC3(C)OCCC23)cc1 (stereo not drawn) [Compound I-420] | 13.1 nM
45 | COc1ccc(S(=O)(=O)N(CC(C)C)CC(O)C(Cc2ccc(N(CCc3ccccc3)Cc3ccccc3-c3sc4c(c3C(=O)O)CC(C)(C)CC4)cc2)NC(=O)OC2COC3(C)OCCC23)cc1 (stereo not drawn) [Compound I-421] | 14.7 nM
